Experimental data taken from patent US10093623B2, “Cyclic amides as MetAP-2 inhibitors” (MERCK PATENT GmbH, priority 2012, dated 2018).

Biological target: MetAP-2 (Homo sapiens, UniProt P50579)
Test: MetAP-2 activity measurement (coupled enzymatic reactions, Met-Arg-Ser substrate, dianisidine detection at 450 nm)
Assay type: biochemical
Settings: Inhibition of MetAP-2; read-out: IC50 enzyme
In short: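 Coupled continuous assay with Met-Arg-Ser tripeptide substrate: released methionine oxidised by L-amino acid oxidase to give H2O2, which peroxidase uses to oxidise dianisidine, followed at 450 nm. Activity taken as slope of absorbance versus time over the visually linear region; dianisidine extinction coefficient converts to mol Met per time.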

MetAP-2, sequence (P50579 whole entry, species assumed): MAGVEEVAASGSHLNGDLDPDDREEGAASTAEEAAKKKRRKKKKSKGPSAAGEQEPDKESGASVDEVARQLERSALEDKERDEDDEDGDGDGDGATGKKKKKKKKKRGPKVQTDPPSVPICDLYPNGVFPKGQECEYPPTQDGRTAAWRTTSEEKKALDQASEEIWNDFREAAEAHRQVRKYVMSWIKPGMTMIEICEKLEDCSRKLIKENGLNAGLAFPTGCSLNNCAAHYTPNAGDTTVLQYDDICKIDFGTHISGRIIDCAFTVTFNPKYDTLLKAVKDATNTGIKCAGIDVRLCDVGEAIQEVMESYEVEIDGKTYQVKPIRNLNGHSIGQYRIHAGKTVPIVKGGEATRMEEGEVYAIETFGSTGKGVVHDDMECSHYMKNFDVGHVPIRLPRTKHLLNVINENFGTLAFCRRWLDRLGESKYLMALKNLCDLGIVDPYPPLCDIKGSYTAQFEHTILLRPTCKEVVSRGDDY

| SMILES | IC50 |
| --- | --- |
| O=C1COc2cc(N3CC[C@@](O)(C(=O)NCc4cc(F)cc(Cl)c4)C3=O)ccc2N1 [A198, N-(3-Chloro-5-fluorobenzyl)-(R)-3-hydroxy-2-oxo-1-(3-oxo-3,4-dihydro-2H-benzo-1,4-oxazin-7-yl)pyrrolidine-3-carboxamide] | > 10000 nM |
| O=C1CCc2cc(N3CC[C@](O)(C(=O)NCc4cc(Cl)c(F)cc4F)C3=O)ccc2N1 [A235, N-(5-Chloro-2,4-difluorobenzyl)-(S)-3-hydroxy-2-oxo-1-(2-oxo-1,2,3,4-tetrahydroquinolin-6-yl)-pyrrolidine-3-carboxamide] | 10 to 1000 nM |
| O=C(NCc1ccccn1)[C@@]1(O)CCCN(Cc2cccc(F)c2F)C1=O [A259, N-(Pyridin-2-ylmethyl)-(S)-1-(2,3-difluorobenzyl)-3-hydroxy-2-oxopiperidine-3-carboxamide] | > 10000 nM |
| O=C1N(c2ccccc2)CCC1(O)CNCCc1ccc(F)cc1 (stereo not drawn) [B47, 3-{[2-(4-Fluorophenyl)-ethylamino]methyl}-3-hydroxy-1-phenylpyrrolidin-2-one] | 1000 to 10000 nM |
| O=C1N(Cc2ccccc2)CCC[C@@]1(O)CNCc1cc(F)cc(Cl)c1 [B55, (R)-1-Benzyl-3-[(3-chloro-5-fluorobenzylamino)methyl]-3-hydroxypiperidin-2-one] | 1000 to 10000 nM |
| OC1(CNCc2cc(F)cc(Cl)c2)CCCN(Cc2ccccc2)C1 (stereo not drawn) [B19, 1-Benzyl-3-[(3-chloro-5-fluorobenzylamino)methyl]-piperidin-3-ol] | > 10000 nM |
| NS(=O)(=O)c1cccc(N2CCC(O)(C(=O)NCc3cc(F)cc(Cl)c3)C2=O)c1 (stereo not drawn) [B107, N-(3-Chloro-5-fluorobenzyl)-3-hydroxy-2-oxo-1-(3-sulfamoyl-phenyl)pyrrolidine-3-carboxamide] | 10 to 1000 nM |
| NC(=O)c1cccc(N2CCC(O)(C(=O)NCc3cc(F)cc(F)c3)C2=O)c1 (stereo not drawn) [A178, N-(3,5-Difluorobenzyl)-1-(3-carbamoylphenyl)-3-hydroxy-2-oxopyrrolidine-3-carboxamide] | 10 to 1000 nM |
| O=C(NCc1cc(F)cc(Cl)c1)C1(O)CCN(c2ccc(N3CCOCC3)nc2)C1=O (stereo not drawn) [A173, N-(3-Chloro-5-fluorobenzyl)-3-hydroxy-1-(6-morpholin-4-yl-pyridin-3-yl)-2-oxopyrrolidine-3-carboxamide] | 10 to 1000 nM |
| O=C(NCc1cc(F)cc(Cl)c1)C1(O)CCN([C@H]2CC[C@H](C(=O)O)CC2)C1=O (stereo partly drawn) [A152, 4-[3-(3-Chloro-5-fluorobenzyl-carbamoyl)-3-hydroxy-2-oxo-pyrrolidin-1-yl]-cyclohexanecarboxylic acid] | 1000 to 10000 nM |
| N#CCn1cc(N2CCC(O)(C(=O)NCc3cc(F)cc(Cl)c3)C2=O)cn1 (stereo not drawn) [B87, N-(3-Chloro-5-fluorobenzyl)-1-(1-cyanomethyl-1H-pyrazol-4-yl)-3-hydroxy-2-oxopyrrolidine-3-carboxamide] | 10 to 1000 nM |
| O=C(NCc1cc(F)cc(Cl)c1)[C@@]1(O)CCN(c2cnc3[nH]cc(C(F)(F)F)c3c2)C1=O [B139, N-(3-Chloro-5-fluorobenzyl)-(S)-3-hydroxy-2-oxo-1-(3-trifluoro-methyl-1H-pyrrolo[2,3-b]pyridin-5-yl)pyrrolidine-3-carboxamide] | 10 to 1000 nM |
| Cc1cc(N2CCC(O)(C(=O)NCc3cc(F)cc(Cl)c3)C2=O)cnc1N1CCOCC1=O (stereo not drawn) [A142, N-(3-Chloro-5-fluorobenzyl)-3-hydroxy-1-[5-methyl-6-(3-oxo-morpholin-4-yl)-pyridin-3-yl]-2-oxopyrrolidine-3-carboxamide] | 10 to 1000 nM |
| O=C(NCc1cc(F)cc(Cl)c1)[C@@]1(O)CCN(c2ccc3[nH]c(-c4nc5ccccc5[nH]4)cc3c2)C1=O [B133, N-(3-Chloro-5-fluorobenzyl)-(S)-1-[2-(1H-benzoimidazol-2-yl)-1H-indol-5-yl]-3-hydroxy-2-oxo-pyrrolidine-3-carboxamide] | 10 to 1000 nM |
| CC(=O)Nc1ccc(N2CCC(O)(C(=O)NCc3cc(F)cc(F)c3)C2=O)cn1 (stereo not drawn) [A176, N-(3,5-Difluorobenzyl)-1-(6-acetylaminopyridin-3-yl)-3-hydroxy-2-oxopyrrolidine-3-carboxamide] | 10 to 1000 nM |
| O=C(NCc1cc(F)cc(Cl)c1)C1(O)CCN(Cc2nc3ccccc3[nH]2)C1=O (stereo not drawn) [A269, N-(3-chloro-5-fluorobenzyl)-1-(1H-benzimidazol-2-ylmethyl)-3-hydroxy-2-oxopyrrolidine-3-carboxamide] | 1000 to 10000 nM |
| COc1ccc(CN2CCC(O)(C(=O)NCc3cc(F)cc(Cl)c3)C2=O)cc1 (stereo not drawn) [A135, N-(3-Chloro-5-fluorobenzyl)-3-hydroxy-1-(4-methoxybenzyl)-2-oxopyrrolidine-3-carboxamide] | 10 to 1000 nM |
| O=C(NC1CC1)c1cccc(N2CC[C@@](O)(C(=O)NCc3cc(F)cc(Cl)c3)C2=O)c1 [A82, N-(3-Chloro-5-fluorobenzyl)-(R)-1-(3-cyclopropylcarbamoylphenyl)-3-hydroxy-2-oxopyrrolidine-3-carboxamide] | 1000 to 10000 nM |
| NCCOCCOCCNC(=O)c1cc2cc(N3CC[C@](O)(C(=O)NCc4cc(F)cc(Cl)c4)C3=O)ccc2[nH]1 [B108, N-({2-[2-(2-Aminoethoxy)-ethoxy]ethyl})-5-[(S)-3-(3-chloro-5-fluorobenzylcarbamoyl)-3-hydroxy-2-oxopyrrolidin-1-yl]-1H-indole-2-carboxamide] | 10 to 1000 nM |
| NC(=O)c1cccc(N2CC[C@@](O)(C(=O)NCCc3cc(F)cc(Cl)c3)C2=O)c1 [A159, N-[2-(3-Chloro-5-fluorophenyl)-ethyl]-(R)-1-(3-carbamoyl-phenyl)-3-hydroxy-2-oxo-pyrrolidine-3-carboxamide] | 1000 to 10000 nM |
| O=C1CCc2cc(N3CCC(O)(C(=O)NCCc4cc(F)cc(Cl)c4)C3=O)ccc2N1 (stereo not drawn) [A137, N-[2-(3-Chloro-5-fluorophenyl)-ethyl]-3-hydroxy-2-oxo-1-(2-oxo-1,2,3,4-tetrahydroquinolin-6-yl)-pyrrolidine-3-carboxamide] | 10 to 1000 nM |
| CCC(=O)Nc1ccc(N2CC[C@](O)(C(=O)NCc3cc(F)cc(Cl)c3)C2=O)cn1 [A171, N-(3-Chloro-5-fluorobenzyl)-(S)-3-hydroxy-2-oxo-1-(6-propionylaminopyridin-3-yl)-pyrrolidine-3-carboxamide] | 10 to 1000 nM |
| O=C(NCc1cc(F)cc(Cl)c1)[C@]1(O)CCN(c2cnc3[nH]cnc3c2)C1=O [B93, N-(3-Chloro-5-fluorobenzyl)-(R)-3-hydroxy-1-(3H-imidazo-[4,5-b]pyridin-6-yl)-2-oxo-pyrrolidine-3-carboxamide] | 1000 to 10000 nM |
| CNc1ccc(N2CCC(O)(C(=O)NCc3cc(F)cc(Cl)c3)C2=O)cn1 (stereo not drawn) [A116, N-(3-Chloro-5-fluorobenzyl)-3-hydroxy-1-(6-methylamino-pyridin-3-yl)-2-oxopyrrolidine-3-carboxamide] | 10 to 1000 nM |
| Cn1cncc1CN1CCC(O)(C(=O)NCc2cc(F)cc(Cl)c2)C1=O (stereo not drawn) [A272, N-(3-Chloro-5-fluorobenzyl)-3-hydroxy-1-(3-methyl-3H-imidazol-4-ylmethyl)-2-oxo-pyrrolidine-3-carboxamide] | 1000 to 10000 nM |
| CNC(=O)c1cc2cc(N3CC[C@@](O)(C(=O)NCc4cc(F)cc(Cl)c4)C3=O)ccc2[nH]1 [B102, N-Methyl-5-[(R)-3-(3-chloro-5-fluorobenzylcarbamoyl)-3-hydroxy-2-oxopyrrolidin-1-yl]-1H-indole-2-carboxamide] | > 10000 nM |
| COc1ccc(N2CCC(O)(C(=O)NCc3cc(F)cc(Cl)c3)C2=O)cn1 (stereo not drawn) [A138, N-(3-Chloro-5-fluorobenzyl)-3-hydroxy-1-(6-methoxypyridin-3-yl)-2-oxopyrrolidine-3-carboxamide] | 10 to 1000 nM |
